Experimental data taken from the supplement of paper PMC7017272.
± gives the standard deviation of the averaged measurements.

Columns and labels:
Conditions in all cases: treatment time: 3 days
[1] = tested on: UT-SCC-24A; assay: maximal % inhibition of viability relative to DMSO; higher = stronger effect
Procedure: (§1)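 HNSCC cell lines (500 cells/well, 384-well) were cultured on plastic, on top of (2D) or embedded (3D) in Matrigel or human leiomyoma matrix Myogel (500 ug/mL; Myogel 3D mixed with rat collagen I). Cells were treated for 3 days with 5 ten-fold concentrations of each drug, and viability was read by CellTiter-Glo. Viability was normalised to DMSO (0% inhibition) and 100 uM benzethonium chloride (100% inhibition) controls and fitted with the FIMM DSRT pipeline to give IC50 (nM), maximal % inhibition and the drug sensitivity score (DSS). Suffixes _1/_2/_3 on drug names are replicates.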

[2] = tested on: UT-SCC-106A; assay: drug sensitivity score (DSS); higher = more sensitive; extreme values may be limits of the assay
Summary of the method: (§2)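 Using 384-well plates, 500 cells/well of HPV-negative HNSCC cell lines were grown on plastic, on 500 µg/mL Matrigel or Myogel coatings, or embedded in Matrigel or Myogel with rat collagen I. They were treated with compounds at five 10-fold concentrations for 3 days, and luminescence from CellTiter-Glo 2.0 was normalised to vehicle (0.1% DMSO) and cell-killing control wells. IC50, maximal inhibition and drug sensitivity score were derived from percent-inhibition dose–response curves in the FIMM pipeline.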

[3] = tested on: UT-SCC-14; assay: as above
Summary of the method: as §2

[4] = tested on: UT-SCC-24B; assay: as above
Summary of the method: as §2

[5] = tested on: UT-SCC-28; assay: as above
Summary of the method: as §2

[6] = tested on: UT-SCC-40; assay: as above
Summary of the method: as §2

[7] = tested on: UT-SCC-42A; assay: as above
Summary of the method: as §2

[8] = tested on: UT-SCC-42B; assay: as above
Summary of the method: as §2

[9] = tested on: UT-SCC-44; assay: as above
Summary of the method: as §2

[10] = tested on: UT-SCC-73; assay: as above
Summary of the method: as §2

[11] = tested on: UT-SCC-81; assay: as above
Summary of the method: as §2

[12] = tested on: UT-SCC-8; assay: as above
Summary of the method: as §2

[13] = tested on: UT-SCC-106A; assay: relative IC50 (midpoint of the fitted curve; maximal inhibition may be below 50%); higher = less potent
Summary of the method: as §2

[14] = tested on: UT-SCC-14; assay: as above
Summary of the method: as §2

[15] = tested on: UT-SCC-42A; assay: as above
Summary of the method: as §2

[16] = tested on: UT-SCC-42B; assay: as above
Summary of the method: as §2

[17] = tested on: UT-SCC-44; assay: as above
Summary of the method: as §2

[18] = tested on: UT-SCC-73; assay: as above
Summary of the method: as §2

[19] = tested on: UT-SCC-8; assay: as above
Summary of the method: as §2

[20] = tested on: UT-SCC-24A; assay: relative IC50 (midpoint of the fitted curve; maximal inhibition may be below 50%); higher = less potent
Procedure: as §1

[21] = culture condition: embedded in Matrigel
[22] = culture condition: embedded in Myogel + collagen I
[23] = culture condition: on top of Matrigel
[24] = culture condition: on top of Myogel
[25] = culture condition: plastic 2D (no matrix)

Cn1c(=O)n(-c2ccc(C(C)(C)C#N)cc2)c2c3cc(-c4cnc5ccccc5c4)ccc3ncc21 [Dactolisib]
> 989 nM: relative IC50 [13, 21] | relative IC50 [13, 23] | relative IC50 [13, 24] | relative IC50 [14, 22] | relative IC50 [14, 24] | relative IC50 [15, 21] | relative IC50 [15, 22] | relative IC50 [15, 23] | relative IC50 [15, 24] | relative IC50 [15, 25] | relative IC50 [16, 21] | relative IC50 [16, 23] | relative IC50 [16, 24] | relative IC50 [16, 25] | relative IC50 [17, 21] | relative IC50 [17, 22] | relative IC50 [18, 22] | relative IC50 [18, 24] | relative IC50 [18, 25] | relative IC50 [19, 21] | relative IC50 [19, 25] | relative IC50 [20, 23] | relative IC50 [20, 24] | relative IC50 [20, 25]
0.5 ± 0.87 DSS: drug sensitivity score [6, 21]
6.6 ± 2.1%: maximal % inhibition of viability [1, 25]
14.9 ± 11%: maximal % inhibition of viability [1, 22]
0.9 ± 1.6 DSS: drug sensitivity score [9, 25]
11.6 ± 0.64 DSS: drug sensitivity score [4, 21]
0.6 ± 0.66 DSS: drug sensitivity score [12, 22]
13.6 ± 0.51 DSS: drug sensitivity score [4, 24]
0.0333 ± 0.058 DSS: drug sensitivity score [2, 25]
14.7 ± 5.4%: maximal % inhibition of viability [1, 23]
3.03 ± 5.2 DSS: drug sensitivity score [3, 21]
3.7 ± 3.4 DSS: drug sensitivity score [11, 21]
16.3 ± 0.52 DSS: drug sensitivity score [4, 22]
0.133 ± 0.23 DSS: drug sensitivity score [5, 22]
0.3 ± 0.52 DSS: drug sensitivity score [3, 25]
4.17 ± 3.1%: maximal % inhibition of viability [1, 24]
0.133 ± 0.15 DSS: drug sensitivity score [12, 24]
13.4 ± 0.46 DSS: drug sensitivity score [4, 23]
12.8 ± 0.25 DSS: drug sensitivity score [4, 25]
34.6 ± 9%: maximal % inhibition of viability [1, 21]
0 DSS: drug sensitivity score [2, 21] | drug sensitivity score [2, 22] | drug sensitivity score [2, 23] | drug sensitivity score [2, 24] | drug sensitivity score [3, 22] | drug sensitivity score [3, 23] | drug sensitivity score [3, 24] | drug sensitivity score [5, 21] | drug sensitivity score [5, 25] | drug sensitivity score [6, 22] | drug sensitivity score [6, 23] | drug sensitivity score [6, 24] | drug sensitivity score [6, 25] | drug sensitivity score [7, 21] | drug sensitivity score [7, 22] | drug sensitivity score [7, 23] | drug sensitivity score [7, 24] | drug sensitivity score [7, 25] | drug sensitivity score [8, 21] | drug sensitivity score [8, 23] | drug sensitivity score [8, 24] | drug sensitivity score [8, 25] | drug sensitivity score [9, 21] | drug sensitivity score [9, 22] | drug sensitivity score [9, 23] | drug sensitivity score [9, 24] | drug sensitivity score [10, 21] | drug sensitivity score [10, 22] | drug sensitivity score [10, 23] | drug sensitivity score [10, 24] | drug sensitivity score [10, 25] | drug sensitivity score [11, 22] | drug sensitivity score [11, 23] | drug sensitivity score [11, 24] | drug sensitivity score [11, 25] | drug sensitivity score [12, 21] | drug sensitivity score [12, 23] | drug sensitivity score [12, 25]
0.1 ± 0.17 DSS: drug sensitivity score [5, 23]
